Laboratory results as given in patent US6596687B1, “Cell adhesion inhibitors” (Biogen, Inc., priority 1995, dated 2003).
pIC50: −log10 of the molar value. Like-named read-outs stand apart in the source and are kept apart here. Numbered stars: 1 amine (or outer) side, 2 acyl side, 3 side chain; on linkers, the order of the positions; unused ones are H or OH. Peptide text beside a SMILES is read from it. * marks the point of attachment. Suc = O=C(CCC(=O)[*:2])[*:1]; NHPh = c1ccc(N*)cc1

Target: T1, VLA4 (Homo sapiens, UniProt P05556+P13612)
T1 construct: endogenous in cells; host or cells: Ramos cells
T1 sequence (P13612 34-1032): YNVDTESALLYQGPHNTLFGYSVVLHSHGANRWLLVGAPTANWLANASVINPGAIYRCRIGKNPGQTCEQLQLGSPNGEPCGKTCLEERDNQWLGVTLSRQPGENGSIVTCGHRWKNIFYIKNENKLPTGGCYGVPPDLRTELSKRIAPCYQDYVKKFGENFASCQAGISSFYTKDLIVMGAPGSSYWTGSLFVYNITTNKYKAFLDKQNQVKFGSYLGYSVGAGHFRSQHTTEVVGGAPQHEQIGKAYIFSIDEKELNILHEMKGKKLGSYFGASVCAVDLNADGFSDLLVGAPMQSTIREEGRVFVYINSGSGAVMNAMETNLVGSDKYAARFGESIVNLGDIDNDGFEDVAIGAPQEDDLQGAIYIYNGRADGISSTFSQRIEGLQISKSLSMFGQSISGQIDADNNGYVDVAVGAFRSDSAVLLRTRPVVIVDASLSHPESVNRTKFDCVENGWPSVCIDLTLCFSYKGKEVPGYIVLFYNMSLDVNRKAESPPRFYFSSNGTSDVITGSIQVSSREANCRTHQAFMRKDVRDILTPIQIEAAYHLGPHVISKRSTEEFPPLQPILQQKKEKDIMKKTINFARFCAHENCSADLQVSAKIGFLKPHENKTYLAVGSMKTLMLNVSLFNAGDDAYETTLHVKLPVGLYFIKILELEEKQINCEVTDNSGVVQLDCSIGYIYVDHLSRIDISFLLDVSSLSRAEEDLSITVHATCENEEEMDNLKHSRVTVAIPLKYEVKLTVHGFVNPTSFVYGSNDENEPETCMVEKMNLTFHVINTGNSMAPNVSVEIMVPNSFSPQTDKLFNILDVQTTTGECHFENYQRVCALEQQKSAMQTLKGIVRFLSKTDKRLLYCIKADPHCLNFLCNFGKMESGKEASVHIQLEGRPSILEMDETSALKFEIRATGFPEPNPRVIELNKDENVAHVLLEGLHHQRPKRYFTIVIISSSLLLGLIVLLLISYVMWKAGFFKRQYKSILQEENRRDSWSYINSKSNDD
T1 sequence (P05556 21-798): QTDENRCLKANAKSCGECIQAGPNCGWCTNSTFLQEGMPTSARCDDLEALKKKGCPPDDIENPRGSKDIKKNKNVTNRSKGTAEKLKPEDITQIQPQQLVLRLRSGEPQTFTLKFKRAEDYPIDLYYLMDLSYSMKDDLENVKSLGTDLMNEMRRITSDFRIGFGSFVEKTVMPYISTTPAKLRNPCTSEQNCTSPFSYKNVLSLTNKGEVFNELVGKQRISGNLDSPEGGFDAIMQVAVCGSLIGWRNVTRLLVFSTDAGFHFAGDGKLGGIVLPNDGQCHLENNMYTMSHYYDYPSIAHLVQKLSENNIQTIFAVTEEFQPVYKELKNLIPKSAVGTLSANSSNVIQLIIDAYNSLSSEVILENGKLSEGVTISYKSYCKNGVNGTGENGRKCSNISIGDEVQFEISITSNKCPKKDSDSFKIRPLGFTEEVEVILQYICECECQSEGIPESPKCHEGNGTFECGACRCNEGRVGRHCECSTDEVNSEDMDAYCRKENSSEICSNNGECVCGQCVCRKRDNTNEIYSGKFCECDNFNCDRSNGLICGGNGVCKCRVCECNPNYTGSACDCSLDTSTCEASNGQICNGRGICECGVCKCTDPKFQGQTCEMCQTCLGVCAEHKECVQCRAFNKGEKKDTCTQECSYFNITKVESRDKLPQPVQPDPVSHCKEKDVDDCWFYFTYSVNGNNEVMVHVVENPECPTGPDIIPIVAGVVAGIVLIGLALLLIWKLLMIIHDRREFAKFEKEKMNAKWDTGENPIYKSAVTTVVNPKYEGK
Assay: Inhibition of VLA4-dependent adhesion of Ramos cells to BSA-CS1
Type: cell-based
Excerpt: For example, the cell adhesion inhibitory activity of these compounds may be measured by determining the concentration of inhibitor required to block the binding of VLA-4-expressing cells to fibronectin- or CS1-coated plates. In this assay microtiter wells are coated with either fibronectin (containing the CS1-sequence) or CS-1. If CS-1 is used, it must be conjugated to a carrier protein, such as bovine serum albumin, in order to bind to the wells. Once the wells are coated, varying concentrations of the test compound are then added together with appropriately labelled, VLA-4-expressing cells. Alternatively, the test compound may be added first and allowed to incubate with the coated wells prior to the addition of the cells. The cells are allowed to incubate in the wells for at least 30 minutes. Following incubation, the wells are emptied and washed. Inhibition of binding is measured by quantitating the fluorescence or radioactivity bound to the plate for each of the various concentrations of test compound, as well as for controls containing no test compound.
VLA-4-expressing cells that may be utilized in this assay include Ramos cells, Jurkat cells, A375 melanoma cells, as well as human peripheral blood lymophocytes (PBLs). The cells used in this assay may be fluorescently or radioactively labelled.
This assay was used to assess the potency of VLA4-directed inhibitory compounds of this invention. 1.
We dissolved BSA-SMCC (Pierce Chemical, Rockford, Ill.; Catalog #77115) in H2O at a concentration of 10 mg/mL. [SEQ ID NO:4]: […](“Cys-Tyr-CS1 peptide”), which we synthesized by conventional solid phase chemistry and purified by HPLC, was dissolved in 10 mM HEPES pH 5, 50 mM NaCl and 0.1 mM EDTA also at a concentration of 10 mg/mL. We then mixed 500 μL of BSA-SMCC, 250 μL of Cys-Tyr-CS1 peptide and 75 μL of 1 mM HEPES pH 7.5 and allowed the conjugation reaction to proceed for 30 minutes. We stopped the reaction by adding 1 μL of beta-mercaptoethanol. Samples were analyzed for cross-linking by SDS-PAGE.
We coated the wells of a Linbro titertek polystyrene 96-well flat bottom plate (Flow Laboratories, Maclean, Va.; catalog #76-231-05) with 100 μL of the above-described BSA-CS1 solution diluted to 1 μg/mL in 0.05 M NaHCO3 (15 mM NaHCO3, 35 mM Na2CO3) pH 9.2. Some wells were not coated with CS1 in order to assess non-specific cell binding (NSB). The plate was then incubated overnight at 4° C.
Following this incubation, the contents of the wells were removed by inverting and blotting the plate. All of the wells were then blocked with 100 μL of 1% BSA in PBS, 0.02% NaN3, for a minimum of one hour at room temperature.
Ramos cells are grown, maintained and labelled in RPMI 1640 culture medium containing 1% BSA. Just prior to running the assay, we added 2′, 7′-bis-(2-carboxyethyl)-5(and -6)carboxyfluorescein acetoxymethyl ester (“BCECF-AM”; Molecular Probes Inc., Eugene, Oregon; catalog #B-1150) to a final concentration of 2 μM to a culture of Ramos cells (4×10^6 cells/mL). We incubated the cells for 20 minutes at 37° C.
Following labelling, the cells were washed twice in assay buffer (24 mM TRIS, 137 mM NaCl, 2.7 mM KCl, pH 7.4, containing 0.1 BSA and 2mM glucose) to remove any cations originating from the culture medium. The cells were then resuspended in assay buffer to 4×10^6 cells/mL and 2 mM MnCl2 was added to upregulate VLA4 on the surface of the cells.
Immediately prior to running the assay, we removed the BSA blocking solution from the 96-well plates and washed the wells with 100 μL of assay buffer. We then added to each well 25 μL of test cell adhesion inhibitory compound at 2×the final concentration and 25 μL of the labelled Ramos cells. […] Each concentration of compound was tested in triplicate. The compound and cells are allowed to incubate for 30 minutes at room temperature.

[1] = Ramos cells, BSA-CS1 coated wells, 2 mM MnCl2, 30 minutes at room temperature, read-out: IC50

## CC(C)C[C@H](NC(=O)C1(N)CCc2ccccc2C1)C(=O)N[C@@H](CC(=O)O)C(=O)N[C@H](C(=O)O)C(C)C (stereo partly shown) [Compound 67] (HELM PEPTIDE1{[NC1(C(=O)[*:2])CCc2ccccc2C1].L.D.V}$$$$V2.0)
[1]
  pIC50: < 5.00

## CC(C)[C@H](NC(=O)[C@H](CC(=O)O)NC(=O)OC(C)(C)C)C(=O)O [Compound 68] (HELM PEPTIDE1{[CC(C)(C)OC(=O)[*:2]].D.V}$$$$V2.0)
[1]
  pIC50: < 5.00

## CC(C)C[C@H](NC(=O)c1cc2ccccc2cn1)C(=O)N[C@@H](CC(=O)O)C(=O)N[C@H](C(=O)O)C(C)C [Compound 69]
[1]
  pIC50: < 5.00

## CC(C)[C@H](NC(=O)[C@H](CC(=O)O)NC(=O)c1cc2ccccc2cn1)C(=O)O [Compound 70]
[1]
  pIC50: < 5.00

## CC(C)[C@H](NC(=O)[C@H](CC(=O)O)NC(=O)C1Cc2ccccc2CN1)C(=O)O (stereo partly shown) [Compound 71] (HELM PEPTIDE1{[O=C(C1Cc2ccccc2CN1)[*:2]].D.V}$$$$V2.0)
[1]
  pIC50: < 5.00

## CC(C)C[C@H](NC(=O)C1CCc2ccccc2C1)C(=O)N[C@@H](CC(=O)O)C(=O)N[C@H](C(=O)O)C(C)C (stereo partly shown) [Compound 73]
[1]
  pIC50: < 5.00

## CC(C)[C@H](NC(=O)[C@H](CC(=O)O)NC(=O)C1CCc2ccccc2C1)C(=O)O (stereo partly shown) [Compound 75]
[1]
  pIC50: < 5.00

## CC(C)[C@H](NC(=O)[C@H](CC(=O)O)NC(=O)CCCCc1ccccc1)C(=O)O [Compound 76]
[1]
  pIC50: < 5.00

## CC(C)C[C@H](NC(=O)c1ccccn1)C(=O)N[C@@H](CC(=O)O)C(=O)N[C@H](C(=O)O)C(C)C [Compound 77]
[1]
  pIC50: < 5.00

## CC(C)[C@H](NC(=O)[C@H](CC(=O)O)NC(=O)c1ccccn1)C(=O)O [Compound 78]
[1]
  pIC50: < 5.00

## CC(C)C[C@H](NC(=O)C1CCOC1)C(=O)N[C@@H](CC(=O)O)C(=O)N[C@H](C(=O)O)C(C)C (stereo partly shown) [Compound 79]
[1]
  pIC50: < 5.00

## CC(C)C[C@H](NC(=O)C1CCCO1)C(=O)N[C@@H](CC(=O)O)C(=O)N[C@H](C(=O)O)C(C)C (stereo partly shown) [Compound 80]
[1]
  pIC50: < 5.00

## CC(C)[C@H](NC(=O)[C@H](CC(=O)O)NC(=O)[C@H](Cc1ccccc1)NC(=O)c1cc2ccccc2cn1)C(=O)O [Compound 81]
[1]
  pIC50: < 5.00

## O=C(O)C[C@H](NC(=O)c1cc2ccccc2cn1)C(=O)N[C@@H](Cc1ccccc1)C(=O)O [Compound 87]
[1]
  pIC50: < 5.00

## CC(C)C[C@H](NC(=O)[C@H](CC(=O)O)NC(=O)C1Cc2ccccc2CN1)C(=O)O (stereo partly shown) [Compound 88] (HELM PEPTIDE1{[O=C(C1Cc2ccccc2CN1)[*:2]].D.L}$$$$V2.0)
[1]
  pIC50: < 5.00

## CC(C)C[C@H](NC(=O)[C@H](CC(=O)O)NC(=O)c1cc2ccccc2cn1)C(=O)O [Compound 89]
[1]
  pIC50: < 5.00

## CC(C)C[C@H](NC(=O)[C@H](CC(=O)O)NC(=O)[C@H](CC(C)C)NC(=O)C1Cc2ccccc2CN1)C(=O)O (stereo partly shown) [Compound 90] (HELM PEPTIDE1{[O=C(C1Cc2ccccc2CN1)[*:2]].L.D.L}$$$$V2.0)
[1]
  pIC50: < 5.00

## CC(C)C[C@H](NC(=O)[C@H](CC(=O)O)NC(=O)[C@H](CC(C)C)NC(=O)c1cc2ccccc2cn1)C(=O)O [Compound 91]
[1]
  pIC50: < 5.00

## CC(C)C[C@H](NC(=O)C1Cc2ccccc2CN1)C(=O)N[C@@H](CC(=O)O)C(=O)N[C@@H](Cc1ccccc1)C(=O)O (stereo partly shown) [Compound 92] (HELM PEPTIDE1{[O=C(C1Cc2ccccc2CN1)[*:2]].L.D.F}$$$$V2.0)
[1]
  pIC50: < 5.00

## CC(C)C[C@H](NC(=O)c1cc2ccccc2cn1)C(=O)N[C@@H](CC(=O)O)C(=O)N[C@@H](Cc1ccccc1)C(=O)O [Compound 93]
[1]
  pIC50: < 5.00

## CC(C)C[C@H](NC(=O)c1ccc2ccccc2n1)C(=O)N[C@@H](CC(=O)O)C(=O)N[C@H](C(=O)O)C(C)C [Compound 94]
[1]
  pIC50: < 5.00

## CC(C)C[C@H](NC(=O)CC(c1ccccc1)c1ccccc1)C(=O)N[C@@H](CC(=O)O)C(=O)N[C@H](C(=O)O)C(C)C [Compound 95]
[1]
  pIC50: < 5.00

## CC(C)[C@H](NC(=O)[C@H](CC(=O)O)NC(=O)[C@H](C)NC(=O)C1Cc2ccccc2CN1)C(=O)O (stereo partly shown) [Compound 96] (HELM PEPTIDE1{[O=C(C1Cc2ccccc2CN1)[*:2]].A.D.V}$$$$V2.0)
[1]
  pIC50: < 5.00

## CC(C)[C@H](NC(=O)[C@H](CC(=O)O)NC(=O)[C@H](C)NC(=O)c1cc2ccccc2cn1)C(=O)O [Compound 97]
[1]
  pIC50: < 5.00

## CC(C)C[C@H](NC(=O)CCCCc1ccccc1)C(=O)N[C@@H](CC(=O)O)C(=O)N[C@H](C(=O)O)C(C)C [Compound 98]
[1]
  pIC50: < 5.00

## CC(C)C[C@H](NC(=O)c1cc2ccccc2[nH]1)C(=O)N[C@@H](CC(=O)O)C(=O)N[C@H](C(=O)O)C(C)C [Compound 99]
[1]
  pIC50: < 5.00

## CC(C)CNC(=O)[C@H](CC(=O)O)NC(=O)[C@H](CC(C)C)NC(=O)CCc1ccc(O)cc1 [Compound 100]
[1]
  pIC50: < 5.00

## CC(C)CNC(=O)[C@H](CC(=O)O)NC(=O)[C@H](CC(C)C)NC(=O)c1ccccc1 [Compound 101]
[1]
  pIC50: < 5.00

## CC(C)CCNC(=O)[C@H](CC(=O)O)NC(=O)[C@H](CC(C)C)NC(=O)CCCCc1ccccc1 [Compound 102]
[1]
  pIC50: < 5.00

## CC(C)CCNC(=O)[C@H](CC(=O)O)NC(=O)[C@H](CC(C)C)NC(=O)CCc1ccc(O)cc1 [Compound 103]
[1]
  pIC50: < 5.00

## CC(C)C[C@H](NC(=O)CCCCCc1ccccc1)C(=O)N[C@@H](CC(=O)O)C(=O)N[C@H](C(=O)O)C(C)C [Compound 104]
[1]
  pIC50: < 5.00

## CC(C)C[C@H](NC(=O)c1ccccc1)C(=O)N[C@@H](CC(=O)O)C(=O)N[C@H](C(=O)O)C(C)C [Compound 105] (HELM PEPTIDE1{[O=C(c1ccccc1)[*:2]].L.D.V}$$$$V2.0)
[1]
  pIC50: < 5.00

## CC(C)CNC(=O)[C@H](CC(=O)O)NC(=O)[C@H](CC(C)C)NC(=O)CCCCc1ccccc1 [Compound 106]
[1]
  pIC50: < 5.00

## CC(C)C[C@H](NC(=O)CCC(=O)Nc1ccccc1)C(=O)N[C@@H](CC(=O)O)C(=O)N[C@H](C(=O)O)C(C)C [Compound 107] ({NHPh-Suc}-Leu-Asp-Val-OH)
[1]
  pIC50: < 5.00

## CC(C)C[C@H](NC(=O)CCC(=O)Nc1ccc(F)cc1)C(=O)N[C@@H](CC(=O)O)C(=O)N[C@H](C(=O)O)C(C)C [Compound 108]
[1]
  pIC50: < 5.00

## CC(C)C[C@H](NC(=O)CCC(=O)N(C)c1ccccc1)C(=O)N[C@@H](CC(=O)O)C(=O)N[C@H](C(=O)O)C(C)C [Compound 109]
[1]
  pIC50: < 5.00

## CC(C)CCNC(=O)[C@H](CC(=O)O)NC(=O)[C@H](CC(C)C)NC(=O)C1CCc2ccccc2N1 (stereo partly shown) [Compound 110]
[1]
  pIC50: < 5.00

## CC(C)CNC(=O)[C@H](CC(=O)O)NC(=O)[C@H](CC(C)C)NC(=O)CCC(=O)Nc1ccccc1 [Compound 111]
[1]
  pIC50: < 5.00

## CC(C)C[C@@H](C(=O)N[C@@H](CC(=O)O)C(=O)N[C@H](C(=O)O)C(C)C)N(C)C(=O)c1ccccc1 [Compound 113] (HELM PEPTIDE1{[O=C(c1ccccc1)[*:2]].[meL].D.V}$$$$V2.0)
[1]
  pIC50: < 5.00

## CC(C)C[C@H](NC(=O)C1CCc2ccccc2N1)C(=O)N[C@@H](CC(=O)O)C(=O)N[C@H](C(=O)N1CCC(c2ccccc2)CC1)C(C)C (stereo partly shown) [Compound 115]
  pIC50: < 5.00

## CCCCCCNC(=O)[C@H](CC(=O)O)NC(=O)[C@H](CC(C)C)NC(=O)CCc1ccc(O)cc1 [Compound 116]
[1]
  pIC50: < 5.00

## CC(C)C[C@H](NC(=O)CCc1ccc(O)cc1)C(=O)N[C@@H](CC(=O)O)C(=O)N(CC(C)C)CC(C)C [Compound 117]
[1]
  pIC50: < 5.00

## CCCCCCNC(=O)[C@@H](NC(=O)[C@H](CC(=O)O)NC(=O)[C@H](CC(C)C)NC(=O)CCc1ccc(O)cc1)C(C)C [Compound 119]
[1]
  pIC50: < 5.00
